In ChEMBL document CHEMBL1158659, “The alkaloids of Delphinium cashmirianum” (J Nat Prod, 1979) one finds Activity data, which are given here for five compounds.

Activity calls are given as the source filed them. No cut-off for these calls is given here.

Data set [1] deals with Oryctolagus cuniculus. Nature of the data set: Cardiotoxicity in iv dosed Albino rabbit assessed as drug level to produce arrhythmias tested at basal heart rate of 170 beats/min. The format is toxicity, organism-based. To be noted: in vivo.
Data set [2] concerns Oryctolagus cuniculus. The data set is described as follows: Cardiovascular activity in Albino rabbit assessed as change in heart rate tested at basal heart rate of 170 beats/min at 0.50 mg/kg, iv by physiograph 4. The format is functional. Particulars: dose 0.5 mg/kg.
Data set [3] relates to Oryctolagus cuniculus. Nature of the data set: Cardiotoxicity in iv dosed Albino rabbit assessed as time to produce arrhythmias tested at basal heart rate of 170 beats/min. Particulars: in vivo. Format: toxicity, organism-based.
Data set [4] concerns Oryctolagus cuniculus. Nature of the data set: Cardiovascular activity in Albino rabbit assessed as change in heart rate tested at basal heart rate of 170 beats/min at 0.25 mg/kg, iv by physiograph 4. The format is functional.
The test system of data set [5] is Oryctolagus cuniculus. Nature of the data set: Cardiovascular activity in Albino rabbit assessed as change in heart rate tested at basal heart rate of 170 beats/min at 0.10 mg/kg, iv by physiograph 4. The format is functional. Particulars: dose 0.1 mg/kg.
Data set [6] deals with Oryctolagus cuniculus. Nature of the data set: Cardiotoxicity in iv dosed Albino rabbit assessed as drug level to produce arrhythmias tested at basal heart rate of 180 beats/min. The format is toxicity, organism-based. Particulars: in vivo.
Data set [7] relates to Oryctolagus cuniculus. The data set is described as follows: Cardiovascular activity in Albino rabbit assessed as change in heart rate tested at basal heart rate of 170 beats/min at 1.0 mg/kg, iv by physiograph 4. Format: functional.
The test system of data set [8] is Oryctolagus cuniculus. Nature of the data set: Cardiotoxicity in iv dosed Albino rabbit assessed as time to produce arrhythmias tested at basal heart rate of 180 beats/min. The format is toxicity, organism-based. To be noted: in vivo.
The test system of data set [9] is Oryctolagus cuniculus. Nature of the data set: Cardiovascular activity in Albino rabbit assessed as change in heart rate tested at basal heart rate of 180 beats/min at 1.0 mg/kg, iv by physiograph 4. The format is functional.
A short description of data set [10]: Arrhythmogenic activity in albino guinea pig atria after repeated atrial washing. Format: tissue-based, Cavia porcellus, Cardiac atrium.
A short description of data set [11]: Arrhythmogenic activity in albino guinea pig atria at 100 uM. The format is tissue-based, Cavia porcellus, Cardiac atrium.
For data set [12], the species on record is Cavia porcellus. Nature of the data set: Cardiovascular activity in albino guinea pig atria assessed as increase in heart rate by physiograph 4. Format: functional, tissue-based. Particulars: Cardiac atrium.
Data set [13] relates to Oryctolagus cuniculus. The data set is described as follows: Cardiovascular activity in Albino rabbit assessed as change in heart rate tested at basal heart rate of 190 beats/min at 0.50 mg/kg, iv by physiograph 4. The format is functional. Particulars: dose 0.5 mg/kg.
The species named for data set [14] is Cavia porcellus. The data set is described as follows: Cardiovascular activity in albino guinea pig atria assessed as increase in heart rate at 100 uM by physiograph 4. Format: functional, tissue-based. To be noted: Cardiac atrium.
Data set [15] deals with Oryctolagus cuniculus. Nature of the data set: Cardiovascular activity in Albino rabbit assessed as change in heart rate tested at basal heart rate of 190 beats/min at 0.25 mg/kg, iv by physiograph 4. Format: functional.
The subject of data set [16] is Oryctolagus cuniculus. The data set is described as follows: Cardiovascular activity in Albino rabbit assessed as change in heart rate tested at basal heart rate of 190 beats/min at 1.0 mg/kg, iv by physiograph 4. The format is functional.
In data set [17] the test system is Oryctolagus cuniculus. The data set is described as follows: Cardiotoxicity in iv dosed Albino rabbit assessed as drug level to produce arrhythmias tested at basal heart rate of 190 beats/min. The format is toxicity, organism-based. To be noted: in vivo.
In data set [18] the test system is Oryctolagus cuniculus. Nature of the data set: Cardiovascular activity in Albino rabbit assessed as change in heart rate tested at basal heart rate of 190 beats/min at 0.10 mg/kg, iv by physiograph 4. The format is functional. To be noted: dose 0.1 mg/kg.
The test system of data set [19] is Oryctolagus cuniculus. Nature of the data set: Cardiotoxicity in iv dosed Albino rabbit assessed as time to produce arrhythmias tested at basal heart rate of 190 beats/min. The format is toxicity, organism-based. Particulars: in vivo.
Data set [20] in a line: Arrhythmogenic activity in albino guinea pig atria at 10 uM after repeated atrial washing. Format: tissue-based, Cavia porcellus, Cardiac atrium.
In data set [21] the test system is Oryctolagus cuniculus. The data set is described as follows: Cardiotoxicity in iv dosed Albino rabbit assessed as time to produce arrhythmias tested at basal heart rate of 150 beats/min. The format is toxicity, organism-based. To be noted: in vivo.
Data set [22] deals with Oryctolagus cuniculus. Nature of the data set: Cardiotoxicity in iv dosed Albino rabbit assessed as drug level to produce arrhythmias tested at basal heart rate of 150 beats/min. The format is toxicity, organism-based. Particulars: in vivo.
Data set [23] can be described thus: Arrhythmogenic activity in albino guinea pig atria at 30 uM. The format is tissue-based, Cavia porcellus, Cardiac atrium.
In data set [24] the test system is Oryctolagus cuniculus. Nature of the data set: Cardiovascular activity in Albino rabbit assessed as sinusoidal heart rate tested at basal heart rate of 150 beats/min at 0.005 mg/kg, iv by physiograph 4. The format is functional.
Data set [25] relates to Oryctolagus cuniculus. The data set is described as follows: Cardiotoxicity in iv dosed Albino rabbit assessed as drug level to produce arrhythmias tested at basal heart rate of 150 beats/min upto 30 mins. Particulars: in vivo, 0.5 h. The format is toxicity, organism-based.
Data set [26] relates to Oryctolagus cuniculus. The data set is described as follows: Cardiovascular activity in Albino rabbit assessed as sinusoidal heart rate tested at basal heart rate of 150 beats/min at 0.010 mg/kg, iv by physiograph 4. Format: functional. To be noted: dose 0.01 mg/kg.
The subject of data set [27] is Oryctolagus cuniculus. The data set is described as follows: Cardiovascular activity in Albino rabbit assessed as sinusoidal heart rate tested at basal heart rate of 180 beats/min at 0.05 mg/kg, iv by physiograph 4. The format is functional.
Data set [28] has as its system Oryctolagus cuniculus. The data set is described as follows: Cardiovascular activity in Albino rabbit assessed as change in heart rate tested at basal heart rate of 180 beats/min at 0.10 mg/kg, iv by physiograph 4. The format is functional. Particulars: dose 0.1 mg/kg.
The subject of data set [29] is Oryctolagus cuniculus. Nature of the data set: Cardiovascular activity in Albino rabbit assessed as change in heart rate tested at basal heart rate of 180 beats/min at 0.25 mg/kg, iv by physiograph 4. The format is functional.
The subject of data set [30] is Oryctolagus cuniculus. The data set is described as follows: Cardiovascular activity in Albino rabbit assessed as change in heart rate tested at basal heart rate of 180 beats/min at 0.50 mg/kg, iv by physiograph 4. The format is functional. To be noted: dose 0.5 mg/kg.
In data set [31] the test system is Oryctolagus cuniculus. The data set is described as follows: Cardiovascular activity in Albino rabbit assessed as change in heart rate tested at basal heart rate of 180 beats/min at 5.0 mg/kg, iv by physiograph 4. Format: functional.

`CCN1C[C@]2(OC(=O)c3ccccc3N)CC[C@H](OC)[C@@]34[C@@H]2C[C@H]([C@@H]13)[C@@]1(O)C[C@H](OC)[C@H]2C[C@@H]4[C@]1(O)[C@H]2OC`: the Activity came to 1 mg/kg in the data set on Oryctolagus cuniculus [1]; 0 bpm in the data set on Oryctolagus cuniculus [2]; 52 s in the data set with Oryctolagus cuniculus [3]; 5 bpm with Oryctolagus cuniculus [4]; 8 bpm in the data set on Oryctolagus cuniculus [5]; 1 mg/kg in the data set on Oryctolagus cuniculus [6]. Moreover, the Activity in the data set with Oryctolagus cuniculus [7] is 0 bpm; with Oryctolagus cuniculus [8] it was 85 s; with Oryctolagus cuniculus [9] it was 0 bpm.

Regarding `CCN1C[C@]2(OC(=O)c3ccccc3NC(C)=O)CC[C@H](OC)[C@@]34[C@@H]2C[C@@H]([C@@H]13)[C@@]1(O)C[C@H](OC)[C@H]2C[C@@H]4[C@]1(O)[C@H]2OC`, the Activity result is “Non-toxic” in [10]; “Toxic” in [11]; -30 bpm in the data set with Oryctolagus cuniculus [13]; -5 bpm in the data set on Oryctolagus cuniculus [15]; -35 bpm in the data set on Oryctolagus cuniculus [16]; 1 mg/kg in the data set with Oryctolagus cuniculus [17]. For the same compound, the Activity with Oryctolagus cuniculus [18] is 0 bpm; in the data set on Oryctolagus cuniculus [19], 45 s; in data set [20], “Toxic”. Also, the outcome in the data set filed under Cavia porcellus [12] and in the data set listed under Cavia porcellus [14] was inactive.

In the case of `CCN1C[C@]2(COC)[C@H](O)C[C@H](OC)[C@@]34[C@@H]5C[C@@]6(O)[C@H](OC(=O)c7ccccc7)[C@@H]5[C@@](OC(C)=O)([C@@H]([C@H](OC)[C@H]23)[C@@H]14)[C@@H](O)[C@@H]6OC` [ACONITINE], the Activity was 30 s in the data set with Oryctolagus cuniculus [21]; 0.01 mg/kg in the data set on Oryctolagus cuniculus [22]; “Toxic” in [23]; “Dose-dependent effect” in the data set listed under Cavia porcellus [12]; 110 bpm in the data set with Oryctolagus cuniculus [24]; 0.005 mg/kg with Oryctolagus cuniculus [25]. The Activity with Oryctolagus cuniculus [26] came to 170 bpm; in the data set on Oryctolagus cuniculus [17], 0.1 mg/kg; with Oryctolagus cuniculus [19] it was 12 s.

Take `CCN1C[C@]2(COC(=O)c3ccccc3N)CC[C@H](OC)[C@]34C1[C@](O)([C@@H](OC)[C@H]23)[C@@]1(O)C[C@H](OC)[C@H]2C[C@@H]4[C@@H]1[C@H]2OC` [ANTHRANOYLLYCOCTONINE]: the Activity with Oryctolagus cuniculus [2] is recorded as 5 bpm; with Oryctolagus cuniculus [4], 8 bpm; in the data set on Oryctolagus cuniculus [7] it was -5 bpm.

For the compound `CCN1C[C@]2(COC(=O)c3ccccc3NC(=O)CCC(N)=O)CC[C@H](OC)[C@@]34[C@@H]5C[C@H]6[C@H](OC)[C@@H]5[C@](O)(C[C@@H]6OC)[C@](O)([C@@H](OC)[C@H]23)[C@@H]14` [AVADHARIDINE], the Activity is reported as 0 bpm in the data set with Oryctolagus cuniculus [27]; 8 bpm with Oryctolagus cuniculus [28]; 5 bpm with Oryctolagus cuniculus [29]; 0 bpm in the data set with Oryctolagus cuniculus [9]; 0 bpm with Oryctolagus cuniculus [30]; -10 bpm in the data set with Oryctolagus cuniculus [31].
